#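 A five-concentration, 48-hour dose response in 96-well plates underlies each endpoint, interpolated linearly between surrounding concentrations. TGI is the concentration that stops growth completely.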
# Legend:
# Assay in all cases: NCI-60 cell line screen, 48 h
# A498 renal = test system: A498 renal
# A549 NSCLC = test system: A549 NSCLC
# ACHN renal = test system: ACHN renal
# CAKI-1 renal = test system: CAKI-1 renal
# CCRF-CEM leukemia = test system: CCRF-CEM leukemia
# COLO 205 colon = test system: COLO 205 colon
# DLD-1 colon = test system: DLD-1 colon
# DMS 114 small cell lung = test system: DMS 114 small cell lung
# EKVX NSCLC = test system: EKVX NSCLC
# HCC-2998 colon = test system: HCC-2998 colon
# HCT-15 colon = test system: HCT-15 colon
# HOP-62 NSCLC = test system: HOP-62 NSCLC
# HT29 colon = test system: HT29 colon
# IGROV1 ovarian = test system: IGROV1 ovarian
# K-562 leukemia = test system: K-562 leukemia
# KM12 colon = test system: KM12 colon
# KM20L2 colon = test system: KM20L2 colon
# LXFL 529 NSCLC = test system: LXFL 529 NSCLC
# M14 melanoma = test system: M14 melanoma
# M19-MEL melanoma = test system: M19-MEL melanoma
# MOLT-4 leukemia = test system: MOLT-4 leukemia
# NCI-H23 lung = test system: NCI-H23 lung
# NCI-H460 lung = test system: NCI-H460 lung
# NCI-H522 lung = test system: NCI-H522 lung
# OVCAR-3 ovarian = test system: OVCAR-3 ovarian
# OVCAR-4 ovarian = test system: OVCAR-4 ovarian
# OVCAR-5 ovarian = test system: OVCAR-5 ovarian
# OVCAR-8 ovarian = test system: OVCAR-8 ovarian
# RPMI-8226 leukemia = test system: RPMI-8226 leukemia
# SF-268 CNS = test system: SF-268 CNS
# SF-295 CNS = test system: SF-295 CNS
# SK-MEL-28 melanoma = test system: SK-MEL-28 melanoma
# SK-MEL-5 melanoma = test system: SK-MEL-5 melanoma
# SK-OV-3 ovarian = test system: SK-OV-3 ovarian
# SN12C renal = test system: SN12C renal
# SNB-19 CNS = test system: SNB-19 CNS
# SNB-75 CNS = test system: SNB-75 CNS
# SNB-78 CNS = test system: SNB-78 CNS
# SW-620 colon = test system: SW-620 colon
# TK-10 renal = test system: TK-10 renal
# U251 CNS = test system: U251 CNS
# UACC-257 melanoma = test system: UACC-257 melanoma
# UACC-62 melanoma = test system: UACC-62 melanoma
# UO-31 renal = test system: UO-31 renal
# XF 498 CNS = test system: XF 498 CNS
# 786-0 renal = test system: 786-0 renal
# DMS 273 small cell lung = test system: DMS 273 small cell lung
# HCT-116 colon = test system: HCT-116 colon
# HL-60(TB) leukemia = test system: HL-60(TB) leukemia
# LOX IMVI melanoma = test system: LOX IMVI melanoma
# MALME-3M melanoma = test system: MALME-3M melanoma
# RXF 393 renal = test system: RXF 393 renal
# SF-539 CNS = test system: SF-539 CNS
# SK-MEL-2 melanoma = test system: SK-MEL-2 melanoma
# SR leukemia = test system: SR leukemia
structure (smiles),measurement,setting,value
COc1ccc(/C=C/C(=O)C(C)(C)C)cc1OC,TGI,A498 renal,> 100 µM
same,TGI,A549 NSCLC,> 100 µM
same,TGI,ACHN renal,> 100 µM
same,TGI,CAKI-1 renal,> 100 µM
same,TGI,CCRF-CEM leukemia,> 100 µM
same,TGI,COLO 205 colon,> 100 µM
same,TGI,DLD-1 colon,> 100 µM
same,TGI,DMS 114 small cell lung,> 100 µM
same,TGI,EKVX NSCLC,> 100 µM
same,TGI,HCC-2998 colon,> 100 µM
same,TGI,HCT-15 colon,> 100 µM
same,TGI,HOP-62 NSCLC,> 100 µM
same,TGI,HT29 colon,> 100 µM
same,TGI,IGROV1 ovarian,> 100 µM
same,TGI,K-562 leukemia,> 100 µM
same,TGI,KM12 colon,> 100 µM
same,TGI,KM20L2 colon,> 100 µM
same,TGI,LXFL 529 NSCLC,> 100 µM
same,TGI,M14 melanoma,> 100 µM
same,TGI,M19-MEL melanoma,> 100 µM
same,TGI,MOLT-4 leukemia,> 100 µM
same,TGI,NCI-H23 lung,> 100 µM
same,TGI,NCI-H460 lung,> 100 µM
same,TGI,NCI-H522 lung,> 100 µM
same,TGI,OVCAR-3 ovarian,> 100 µM
same,TGI,OVCAR-4 ovarian,> 100 µM
same,TGI,OVCAR-5 ovarian,> 100 µM
same,TGI,OVCAR-8 ovarian,> 100 µM
same,TGI,RPMI-8226 leukemia,> 100 µM
same,TGI,SF-268 CNS,> 100 µM
same,TGI,SF-295 CNS,> 100 µM
same,TGI,SK-MEL-28 melanoma,> 100 µM
same,TGI,SK-MEL-5 melanoma,> 100 µM
same,TGI,SK-OV-3 ovarian,> 100 µM
same,TGI,SN12C renal,> 100 µM
same,TGI,SNB-19 CNS,> 100 µM
same,TGI,SNB-75 CNS,> 100 µM
same,TGI,SNB-78 CNS,> 100 µM
same,TGI,SW-620 colon,> 100 µM
same,TGI,TK-10 renal,> 100 µM
same,TGI,U251 CNS,> 100 µM
same,TGI,UACC-257 melanoma,> 100 µM
same,TGI,UACC-62 melanoma,> 100 µM
same,TGI,UO-31 renal,> 100 µM
same,TGI,XF 498 CNS,> 100 µM
N#Cc1c2c(c(Cl)n3c1nc1ccccc13)CCCC2,TGI,786-0 renal,3.33 µM
same,TGI,A498 renal,23.8 µM
same,TGI,A549 NSCLC,17.2 µM
same,TGI,ACHN renal,12.4 µM
same,TGI,CAKI-1 renal,11.8 µM
same,TGI,COLO 205 colon,17.7 µM
same,TGI,DLD-1 colon,24.2 µM
same,TGI,DMS 114 small cell lung,5.12 µM
same,TGI,DMS 273 small cell lung,3.74 µM
same,TGI,EKVX NSCLC,32.1 µM
same,TGI,HCC-2998 colon,30.8 µM
same,TGI,HCT-116 colon,5.43 µM
same,TGI,HCT-15 colon,10.6 µM
same,TGI,HL-60(TB) leukemia,5.25 µM
same,TGI,HT29 colon,2.86 µM
same,TGI,IGROV1 ovarian,8.28 µM
same,TGI,K-562 leukemia,7.15 µM
same,TGI,KM20L2 colon,7.48 µM
same,TGI,LOX IMVI melanoma,4.57 µM
same,TGI,M14 melanoma,11.3 µM
same,TGI,M19-MEL melanoma,12.2 µM
same,TGI,MALME-3M melanoma,27 µM
same,TGI,MOLT-4 leukemia,24.8 µM
same,TGI,NCI-H23 lung,17 µM
same,TGI,NCI-H460 lung,4.02 µM
same,TGI,OVCAR-3 ovarian,20.1 µM
same,TGI,OVCAR-4 ovarian,16.7 µM
same,TGI,OVCAR-5 ovarian,32.4 µM
same,TGI,OVCAR-8 ovarian,5.89 µM
same,TGI,RPMI-8226 leukemia,7.52 µM
same,TGI,RXF 393 renal,0.904 µM
same,TGI,SF-268 CNS,8.83 µM
same,TGI,SF-295 CNS,16.6 µM
same,TGI,SF-539 CNS,14 µM
same,TGI,SK-MEL-2 melanoma,8.34 µM
same,TGI,SK-MEL-28 melanoma,4.43 µM
same,TGI,SK-MEL-5 melanoma,3.26 µM
same,TGI,SK-OV-3 ovarian,10.2 µM
same,TGI,SN12C renal,4.74 µM
same,TGI,SNB-19 CNS,14.7 µM
same,TGI,SNB-75 CNS,30.9 µM
same,TGI,SNB-78 CNS,15.9 µM
same,TGI,SR leukemia,> 100 µM
same,TGI,SW-620 colon,4.43 µM
same,TGI,TK-10 renal,6.68 µM
same,TGI,U251 CNS,11.8 µM
same,TGI,UACC-257 melanoma,3.91 µM
same,TGI,UO-31 renal,12.8 µM
same,TGI,XF 498 CNS,5.29 µM
